Measurements as given in patent US11447494B2, “Tricyclic amine compounds as CDK2 inhibitors” (Incyte Corporation, priority 2019, dated 2022).

Legend:
[1] = tested on: CCNE1 amplified COV318 cells; test: Cell cycle analysis by FACS in COV318 cells after p16 or control siRNA; assay type: cell-based, human; details: 100 nM, 16 hours
Protocol: To confirm the role of p16 in CDK2-sensitivity of CCNE-amplified cells, COV318 cells were treated with control or p16-specific siRNA.
(§1) Bulk DNA was stained with DAPI. Compound-treated and DMSO treated control cells were acquired with CytoFlex (Beckman Coulter) and were analyzed using the FlowJo software. For cell cycle analysis of cells with siRNA knockdown, 72 hours after siRNA transfection, cells exposed to […] for 3 hours before detection of Click-iT Alexa Fluor® 647 azide kit.

CDK2/Cyclin E1 = CDK2/Cyclin E1 (Homo sapiens (Human), UniProt P24941); test: CDK2/Cyclin E1 HTRF enzyme activity assay; assay type: biochemical; details: 1 mM ATP
Protocol: CDK2/Cyclin E1 enzyme activity assays utilize full-length human CDK2 co-expressed as N-terminal GST-tagged protein with FLAG-Cyclin E1 in a baculovirus expression system (Carna Product Number 04-165). Assays are conducted in white 384-well polystyrene plates in a final reaction volume of 8 μL. CDK2/Cyclin E1 (0.25 nM) is incubated with compounds (40 nL serially diluted in DMSO) in the presence of ATP (50 μM or 1 mM) and 50 nM ULight™-labeled eIF4E-binding protein 1 (THR37/46) peptide (PerkinElmer) in assay buffer (containing 50 mM HEPES pH 7.5, 1 mM EGTA, 10 mM MgCl2, 2 mM DTT, 0.05 mg/mL BSA, and 0.01% Tween 20) for 60 minutes at room temperature. The reactions are stopped by the addition of EDTA and Europium-labeled anti-phospho-4E-BP1 antibody (PerkinElmer), for a final concentration of 15 mM and 1.5 nM, respectively. HTRF signals are read after 1 hour at room temperature on a PHERAstar FS plate reader (BMG Labtech). Data is analyzed with IDBS XLFit and GraphPad Prism 5.0 software using a three or four parameter dose response curve to determine IC50 for each compound.

[2] = tested on: CCNE1-non-amplified cell lines (COV504, OV56, Igrov1); test: Cell cycle analysis by FACS in CCNE1-non-amplified cell lines; assay type: cell-based, human
Protocol: (§2) The effect of CDK4/6-inhibition in CCNE1-amplified versus CCNE1-non-amplified cell lines was evaluated.
(§3) A similar experiment was performed in a larger set of CCNE1-amplified cell lines (COV318 and OVCAR3) and CCNE1-non-amplified cell lines (COV504, OV56, and Igrov1) (FIG. 6).
as §1

[3] = tested on: CCNE1-amplified cell lines (COV318, OVCAR3); test: Cell cycle analysis by FACS in CCNE1-amplified cell lines; assay type: cell-based, human
Protocol: as §2, §3, §1

[4] = tested on: Rb phosphorylation at S780 in CCNE1-non-amplified cell lines (COV504 and OV56); test: Western blot of Rb phosphorylation at S780 in CCNE1-non-amplified cell lines; assay type: cell-based, human; details: 1 or 15 hours, various doses
Protocol: The effect of CDK4/6-inhibition on Rb phosphorylation at S780 in CCNE1-amplified versus CCNE1-non-amplified cell lines was evaluated. […] One or 15 hours after treatment, the cells were harvested and total protein was extracted and analyzed by western blot (FIG. 8).
Whole cell extracts were prepared using RIPA buffer (Thermo Scientific, 89900) with a Halt Protease and Phosphatase Inhibitor Cocktail (Thermo Scientific, 78440). Protein concentration was quantified with a BCA Protein Assay Kit (Thermo Scientific, 23225) and […] of protein lysates were loaded for SDS-PAGE using precast gradient gels (Bio-Rad, Hercules, No. 456-1094). Samples were diluted in 5× Laemmli buffer (300 mM Tris-HCl pH 6.8, 10% SDS (w/v), 5% 2-mercaptoethanol, 25% glycerol (v/v), 0.1% bromophenol blue w/v) and boiled for 5 minutes. […] of proteins were separated by 8-15% SDS-PAGE and transferred onto polyvinylidene fluoride (PVDF) membranes. Unspecific binding sites on the PVDF membranes were blocked with 5% non-fat milk in TBST (20 mM Tris-HCl, pH 7.6, 137 mM NaCl, 1% Tween-20). […] Images were captured by Luminescence/Fluorescence Imaging System Odyssey CLx Imager (LI-COR).

| SMILES | IC50 (CDK2/Cyclin E1) [nM] | further results |
| --- | --- | --- |
| C[C@@]1(O)CCC[C@H]1n1c(=O)ccc2cnc(NC3CCN(S(C)(=O)=O)CC3)nc21 [Compound A, 8-((1R,2R)-2-hydroxy-2-methylcyclopentyl)-2-((1-(methylsulfonyl)piperidin-4-yl)amino)pyrido[2,3-d]pyrimidin-7(8H)-one] | – | percentage of S phase cells ([1]; control siRNA-treated cells): significantly decreased; percentage of S phase cells ([1]; p16 knocked down cells, vs DMSO): not significantly decreased |
| CNS(=O)(=O)c1ccc(Nc2ncc3c(n2)-c2c(nc(C)n2C(C)C)CC3)cc1 [Example 1, 4-((1-Isopropyl-2-methyl-4,5-dihydro-1H-imidazo[4,5-h]quinazolin-8-yl)amino)-N-methylbenzenesulfonamide] | ≤ 50 | – |
| Cc1nc2c(n1C)-c1nc(Nc3ccc(S(=O)(=O)N(C)C)cc3)ncc1CC2 [Example 2, 4-((1,2-Dimethyl-4,5-dihydro-1H-imidazo[4,5-h]quinazolin-8-yl)amino)-N,N-dimethylbenzenesulfonamide] | ≤ 50 | – |
| Cc1nc2c(n1C)-c1nc(Nc3ccc(S(C)(=O)=O)cc3)ncc1CC2 [Example 3, 1,2-Dimethyl-N-(4-(methylsulfonyl)phenyl)-4,5-dihydro-1H-imidazo[4,5-h]quinazolin-8-amine] | ≤ 50 | – |
| CNS(=O)(=O)c1ccc(Nc2ncc3c(n2)-c2c(nc(C)n2C)CC3)cc1 [Example 4, 4-((1,2-Dimethyl-4,5-dihydro-1H-imidazo[4,5-h]quinazolin-8-yl)amino)-N-methylbenzenesulfonamide] | ≤ 50 | – |
| CNS(=O)(=O)c1ccc(Nc2ncc3c(n2)-c2c(nc(C)n2C)CC3)c(F)c1 [Example 5, 4-((1,2-Dimethyl-4,5-dihydro-1H-imidazo[4,5-h]quinazolin-8-yl)amino)-3-fluoro-N-methylbenzenesulfonamide] | ≤ 50 | – |
| Cc1nc2c(n1C)-c1nc(Nc3ccc(S(=O)(=O)NC(C)C)cc3)ncc1CC2 [Example 6, 4-((1,2-Dimethyl-4,5-dihydro-1H-imidazo[4,5-h]quinazolin-8-yl)amino)-N-isopropylbenzenesulfonamide] | ≤ 50 | – |
| Cc1nc2c(n1C)-c1nc(Nc3ccc(S(=O)(=O)NCCO)cc3)ncc1CC2 [Example 7, 4-((1,2-Dimethyl-4,5-dihydro-1H-imidazo[4,5-h]quinazolin-8-yl)amino)-N-(2-hydroxyethyl)benzenesulfonamide] | ≤ 50 | – |
| NS(=O)(=O)c1ccc(Nc2ncc3c(n2)-n2ccnc2CC3)cc1 [Example 8, 4-((5,6-Dihydroimidazo[1′,2′:1,6]pyrido[2,3-d]pyrimidin-2-yl)amino)benzenesulfonamide] | ≤ 50 | – |
| NS(=O)(=O)c1ccc(Nc2ncc3c(n2)-n2ccnc2CO3)cc1 [Example 9, 4-((6H-Imidazo[1,2-d]pyrimido[5,4-b][1,4]oxazin-2-yl)amino)benzenesulfonamide] | ≤ 50 | – |
| Cc1nc2c(n1C)-c1nc(Nc3ccc(S(=O)(=O)NCCN(C)C)cc3F)ncc1CC2 [Example 10, 4-((1,2-Dimethyl-4,5-dihydro-1H-imidazo[4,5-h]quinazolin-8-yl)amino)-N-(2-(dimethylamino)ethyl)-3-fluorobenzenesulfonamide] | ≤ 50 | – |
| Cc1nc2c(n1C)-c1nc(Nc3ccc(S(=O)(=O)NCCCN(C)C)cc3F)ncc1CC2 [Example 11, 4-((1,2-Dimethyl-4,5-dihydro-1H-imidazo[4,5-h]quinazolin-8-yl)amino)-N-(3-(dimethylamino)propyl)-3-fluorobenzenesulfonamide] | ≤ 50 | – |
| Cc1nc2c(n1C)-c1nc(Nc3ccc(S(=O)(=O)NCC4CCOC4)cc3F)ncc1CC2 (stereo not shown) [Example 12, 4-((1,2-Dimethyl-4,5-dihydro-1H-imidazo[4,5-h]quinazolin-8-yl)amino)-3-fluoro-N-((tetrahydrofuran-3-yl)methyl)benzenesulfonamide] | ≤ 50 | – |
| CC(=O)c1c(C)c2cnc(Nc3ccc(N4CCNCC4)cn3)nc2n(C2CCCC2)c1=O [palbociclib] | – | percentage of cells at the S phase, compared to DMSO ([2]; COV504, OV56, Igrov1, 16 hours after treatment): decreased in CCNE1-non-amplified cell lines in a dose-dependent fashion; inhibition of proliferation (cell cycle analysis) ([2]; COV504 cells, 16 hours, increasing concentrations): dose-dependent inhibition of the proliferation; percentage of cells at the S phase, compared to DMSO ([3]; COV318 and OVCAR3, 16 hours after treatment): not significantly different; inhibition of proliferation (cell cycle analysis) ([3]; OVCAR3 cells, 16 hours, increasing concentrations): not in CCNE1-amplified cells; Rb phosphorylation at S780 [4]: blocked Rb phosphorylation at S780 |
